Here are results for three compounds from patent US20170190705A1, “Compositions and Methods for Inhibiting BMP” (THE BRIGHAM AND WOMAN'S HOSPITAL, INC., priority 2014, published 2017).

One data set deals with T1, caALK3 (Homo sapiens, UniProt P36894, Q233D).
T1 construct: expressed in transfected cells; host or cells: C2C12 BRE-Luc cells infected with adenovirus (MOI 100)
In words: Luciferase reporter assay constitutively active ALK3. The settings on record: read-out: Cell Based Assay caALK3 IC50. From the text: (§1) C2Cl2 […] cells stably transfected with BMP responsive element from the Id promoter fused to luciferase reporter gene (BRE-Luc) were generously provided by Dr. Peter ten Dijke (Leiden University Medical Center, NL) following the methods described by Zilberberg et al., BMC cell biology 2007, 8, 41-50. Human embryonic kidney 293T cells stably transfected with the TGF-β responsive element from the PAI-1 promoter fused to luciferase reporter gene (CAGA-Luc) were generously provided by Dr. Howard Weiner (Brigham and Women's Hospital, Boston, Mass.) following the methods described by Oida et al., PloS one 2011, 6, e18365. C2Cl2 Bre-Luc and 293T CAGA-Luc cells were seeded in DMEM supplemented with 2% FBS at 20,000 cells per well in tissue culture treated 96-well plates (Costar® 3610; Corning). The cells were incubated for 1 h (37° C. and 10% CO2) and allowed to settle and attach. Compounds of interest or DMSO were diluted in DMEM and added at final compound concentrations of 1 nM to 10 μM. Cells were then incubated for 30 min. Adenovirus expressing constitutively active BMP and TGF-β type I receptors (Ad.caALK1-5), generously provided by Dr. Akiko Hata (University of to California at San Francisco), were added to achieve a multiplicity of infection (MOI) of 100. Plates were incubated overnight at 37° C. Cell viability was assayed with an MIT (3-(4,5-dimethylthiazol-2-yl)-2,5-diphenyl tetrazolium bromide) colorimetric assay (Promega) per the manufacturer's instructions. Media was discarded, and firefly luciferase activity was measured (Promega) according to manufacturer's protocol. Light output was measured using a Spectramax L luminometer (Molecular Devices) with an integration time of one second per well. Data was normalized to 100% of incremental BRE-Luc activity due to adenoviruses specifying caALK1, 2, or 3, or the incremental CAGA-Luc activity due to adenoviruses specifying caALK4 or 5.
(In general: In a reporter assay the amount or activity of a reporter protein is the signal.)

Another data set has as its target T2, ALK5 (Homo sapiens, UniProt P36897).
T2 construct: made in house
T2 sequence (P36897 34-503): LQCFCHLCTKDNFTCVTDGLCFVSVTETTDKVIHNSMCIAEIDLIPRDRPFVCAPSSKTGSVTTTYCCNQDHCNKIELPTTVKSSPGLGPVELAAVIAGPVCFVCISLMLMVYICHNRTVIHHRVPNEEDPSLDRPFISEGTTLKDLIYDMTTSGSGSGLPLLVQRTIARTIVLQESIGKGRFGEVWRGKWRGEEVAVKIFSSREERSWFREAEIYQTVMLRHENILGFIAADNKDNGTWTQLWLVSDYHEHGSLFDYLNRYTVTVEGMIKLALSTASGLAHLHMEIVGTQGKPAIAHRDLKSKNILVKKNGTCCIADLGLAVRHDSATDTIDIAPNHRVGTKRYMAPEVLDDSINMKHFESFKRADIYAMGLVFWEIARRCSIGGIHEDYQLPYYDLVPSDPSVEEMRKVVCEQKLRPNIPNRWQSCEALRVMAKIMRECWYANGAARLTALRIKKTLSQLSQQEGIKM
In words: Thermal shift kinase assay ALK5. The class given is binding. The procedure: (§2) Thermal melting experiments were performed using a Real Time PCR machine Mx3005p (Stratagene) with a protein concentration of 1-2 μM and 10 μM inhibitor as described by Niesen et al., Nat Protoc 2007, 2, 2212-21. Recombinant human kinases for DSF screening were prepared by SGC using the published methods of Sanvitale et al., PLoS One 2013, 8, e62721. The potency and selectivity of certain compounds of the invention based on thermal shift kinase and ligand induced transcriptional activity assays are shown in Table 2.

In data set [1] the test system is HePG2 hepatocarcinoma cells. The class given is cell-based. As to conditions: human. The procedure: The cells were incubated for 2 h (37° C. and 5% CO2) and allowed to settle and attach. Compounds of interest or DMSO were diluted in DMEM and added at final compound concentrations of 1 μM, 10 μM, and 100 μM. Cells were incubated for 4 hours and 24 hours after which the media was discarded. Cells were lysed by adding 30 μL of passive lysis buffer (Promega) and shaken at RT for 15 min. Cell viability was determined by quantifying the ATP present in each well by adding 10 μL of CellTiter-Glo (Promega) per well and measuring the light output Spectramax L luminometer (Molecular Devices) with an integration time of one second per well. Data was normalized to 100% viability for cells receiving only DMSO without any concurrent compound.

The target in the next data set is T3, caALK1 (Homo sapiens, UniProt P37023, Q201D).
T3 construct: expressed in transfected cells; host or cells: C2C12 BRE-Luc cells infected with adenovirus (MOI 100)
Kind of data set: Luciferase reporter assay constitutively active ALK1. The settings on record: read-out: Cell Based Assay caALK1 IC50. The procedure:
The cells were incubated for 1 h (37° C. and 10% CO2) and allowed to settle and attach. Compounds of interest or DMSO were diluted in DMEM and added at final compound concentrations of 1 nM to 10 μM. Cells were then incubated for 30 min. Adenovirus expressing constitutively active BMP and TGF-β type I receptors (Ad.caALK1-5), generously provided by Dr. Akiko Hata (University of to California at San Francisco), were added to achieve a multiplicity of infection (MOI) of 100. Plates were incubated overnight at 37° C. Cell viability was assayed with an MIT (3-(4,5-dimethylthiazol-2-yl)-2,5-diphenyl tetrazolium bromide) colorimetric assay (Promega) per the manufacturer's instructions. Media was discarded, and firefly luciferase activity was measured (Promega) according to manufacturer's protocol. Light output was measured using a Spectramax L luminometer (Molecular Devices) with an integration time of one second per well. Data was normalized to 100% of incremental BRE-Luc activity due to adenoviruses specifying caALK1, 2, or 3, or the incremental CAGA-Luc activity due to adenoviruses specifying caALK4 or 5.

The target in the next data set is T4, caALK4 (Homo sapiens, UniProt P36896).
T4 sequence (P36896 1-505 T206D): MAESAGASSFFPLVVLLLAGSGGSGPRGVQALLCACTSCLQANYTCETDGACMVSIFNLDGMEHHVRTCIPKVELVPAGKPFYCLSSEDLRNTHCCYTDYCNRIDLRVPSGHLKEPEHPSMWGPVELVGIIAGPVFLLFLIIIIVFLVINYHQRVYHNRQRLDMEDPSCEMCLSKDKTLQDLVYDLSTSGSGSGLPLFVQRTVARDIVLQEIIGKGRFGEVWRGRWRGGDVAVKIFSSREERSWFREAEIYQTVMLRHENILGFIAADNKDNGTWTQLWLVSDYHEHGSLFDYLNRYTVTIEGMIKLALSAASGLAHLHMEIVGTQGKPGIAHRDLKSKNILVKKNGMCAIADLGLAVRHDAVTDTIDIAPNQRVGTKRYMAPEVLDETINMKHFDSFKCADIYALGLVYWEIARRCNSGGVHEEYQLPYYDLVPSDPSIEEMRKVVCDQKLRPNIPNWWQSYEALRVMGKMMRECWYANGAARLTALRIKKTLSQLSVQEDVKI
Kind of data set: Luciferase reporter assay constitutively active ALK4. As to conditions: read-out: Cell Based Assay caALK4 IC50.
Excerpt: as §1

A further data set concerns the target T5, ALK2 (Homo sapiens, UniProt Q04771, Q207D).
T5 construct: His tag (TEV-cleavable) (N, cleaved yes); made in house; host or cells: Sf9 insect cells (baculovirus)
T5 sequence (Q04771 201-499 Q207D): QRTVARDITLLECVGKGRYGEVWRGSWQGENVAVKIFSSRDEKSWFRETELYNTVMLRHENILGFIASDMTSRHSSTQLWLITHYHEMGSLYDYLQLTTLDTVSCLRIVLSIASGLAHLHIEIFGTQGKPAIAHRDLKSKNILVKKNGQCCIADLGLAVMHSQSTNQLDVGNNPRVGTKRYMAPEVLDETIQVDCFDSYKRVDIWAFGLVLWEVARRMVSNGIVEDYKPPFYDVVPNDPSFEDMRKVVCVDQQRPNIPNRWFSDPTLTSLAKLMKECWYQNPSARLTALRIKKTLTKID
Kind of data set: Thermal shift kinase assay ALK2. As to conditions: for ΔTmDiff.: ALK2 minus ALK5. The class given is binding. The procedure: as §2

The subject of the next data set is TGFβ1. In words: Ligand induced transcriptional activity assay TGFβ1 (CAGA-Luc). As to conditions: Homo sapiens; cell-based signaling inhibition.
Another data set relates to BMP6. In words: Ligand induced transcriptional activity assay BMP6 (BRE-Luc). The class given is cell-based. The settings on record: cell-based signaling inhibition; read-out: BMP6 IC50.

Like-named read-outs stand apart in the source and are kept apart here.

T1 sequence (P36894 24-532 Q233D): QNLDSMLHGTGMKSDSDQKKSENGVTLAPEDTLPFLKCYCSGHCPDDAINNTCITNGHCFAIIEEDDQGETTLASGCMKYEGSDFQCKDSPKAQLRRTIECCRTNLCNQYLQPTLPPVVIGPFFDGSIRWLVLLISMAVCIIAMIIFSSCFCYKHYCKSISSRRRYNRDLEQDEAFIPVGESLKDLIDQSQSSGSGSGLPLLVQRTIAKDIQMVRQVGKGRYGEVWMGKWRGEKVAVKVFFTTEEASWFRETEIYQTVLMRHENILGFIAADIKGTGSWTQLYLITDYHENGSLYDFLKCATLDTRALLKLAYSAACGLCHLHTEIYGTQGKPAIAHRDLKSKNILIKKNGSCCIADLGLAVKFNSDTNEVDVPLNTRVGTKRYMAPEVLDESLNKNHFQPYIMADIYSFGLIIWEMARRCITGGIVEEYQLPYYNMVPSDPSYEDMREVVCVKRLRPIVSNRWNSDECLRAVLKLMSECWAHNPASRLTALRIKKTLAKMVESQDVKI
T3 sequence (P37023 22-503 Q201D): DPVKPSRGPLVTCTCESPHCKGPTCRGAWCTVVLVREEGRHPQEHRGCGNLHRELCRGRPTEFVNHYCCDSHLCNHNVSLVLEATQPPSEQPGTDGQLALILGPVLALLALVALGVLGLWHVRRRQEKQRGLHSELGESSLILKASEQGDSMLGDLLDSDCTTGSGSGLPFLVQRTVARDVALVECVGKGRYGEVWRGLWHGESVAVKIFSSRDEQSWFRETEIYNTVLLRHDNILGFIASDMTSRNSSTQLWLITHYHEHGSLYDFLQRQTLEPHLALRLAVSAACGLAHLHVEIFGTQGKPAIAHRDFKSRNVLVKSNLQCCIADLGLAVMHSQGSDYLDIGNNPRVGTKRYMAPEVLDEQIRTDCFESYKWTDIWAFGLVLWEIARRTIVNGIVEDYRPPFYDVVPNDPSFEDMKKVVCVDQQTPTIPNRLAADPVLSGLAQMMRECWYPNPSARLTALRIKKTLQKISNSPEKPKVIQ

As a reminder, the IC50 is the point on the concentration scale where inhibition reaches its midpoint. As a reminder, the ΔTm is the change in melting temperature against a reference sample. On to `COc1cc(-c2cncc(-c3ccc(N4CCNCC4)cc3)c2)cc(OC)c1OC` [Compound 26, 1-(4-(5-(3,4,5-trimethoxyphenyl)pyridin-3-yl)phenyl)piperazine], for which the IC50 on caALK3 is 105 nM; on caALK1 it was 202 nM; at caALK4, 427 nM. Moreover, the ΔTm at 10 µM worked out at 10.4 °C on ALK5 (10 μM inhibitor) and 14 °C on ALK2 (10 μM inhibitor). Besides, on ALK5 (Table 6), the “ΔT ALK5” value worked out at 10.4 °C. In addition, the Cell viability came out at 96% in data set [1] (4 h, 1 μM); 103% in data set [1] (4 h, 10 μM); 103% in data set [1] (24 h, 1 μM); 80% in data set [1] (24 h, 10 μM). The ΔTmDiff. on ALK2 stood at 3.7. Moreover, at ALK2 (Table 6), the “ΔT ALK2” value worked out at 14.1 °C. In addition, the “ΔT Diff.” value at ALK2 (Table 6, ALK2 minus ALK5) turned out to be 3.7 °C.

Consider `COc1cc(-c2cc(-c3ccc(N4CCNCC4)cc3)cnc2OC)cc(OC)c1OC` [Compound 28, 1-(4-(6-methoxy-5-(3,4,5-trimethoxyphenyl)pyridin-3-yl)phenyl)piperazine], for which the values for the IC50 in the data set on TGFβ1 and with BMP6 were 82000 nM and 1700 nM, respectively. The Cell viability in data set [1] (4 h, 1 μM) amounted to 92%; in data set [1] (4 h, 10 μM) it was 102%; in data set [1] (24 h, 1 μM) it was 99%; in data set [1] (24 h, 10 μM), 98%. Further, the ΔTmDiff. at ALK2 turned out to be 0.1.

For `COc1cc(-c2cc(-c3ccc(N4CCNCC4)cc3)cnc2N(C)C)cc(OC)c1OC` [Compound 25, N,N-dimethyl-5-(4-(piperazin-1-yl)phenyl)-3-(3,4,5-trimethoxyphenyl)pyridin-2-amine], the IC50 with TGFβ1 turned out to be 15000 nM; in the data set on BMP6 it was 1700 nM. For the same compound, the Cell viability is listed as 92% in data set [1] (4 h, 1 μM); 103% in data set [1] (4 h, 10 μM); 95% in data set [1] (4 h, 100 μM); 101% in data set [1] (24 h, 1 μM); 91% in data set [1] (24 h, 10 μM). The ΔTmDiff. on ALK2 was determined as 0.1.
